Assay results published in patent US12415785B2, “Compound modulators of sting” (CTXT PTY LTD, priority 2019, dated 2025).

System: human STING (HAQ)
Experiment: Differential scanning fluorimetry (DSF), huSTING (HAQ)
Format: binding
Conditions: 2 μM protein, compound 100 μM; Tm with ligand minus Tm of protein alone (1% DMSO)
Procedure, shortened: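 Recombinant His-TEV-tagged human STING allelic variants expressed in E. coli and purified by IMAC. Thermal unfolding followed by dye fluorescence (excitation 490 nm, emission 570 nm) from 20° C. to 100° C. in 0.5° C. steps, in triplicate, with and without ligand; Tm taken from the transition inflection point.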

DSF huSTING (HAQ) ΔTm (° C.): 7.46 °C
Compound: NC(=O)c1ccc2c(c1)nc(-c1c(Br)cccc1C(=O)O)n2CCn1c(-c2c(Br)cccc2C(=O)O)nc2cc(C(N)=O)ccc21 (single isomer, unassigned) [Example 29.1, 2,2′-(Ethane-1,2-diylbis(5-carbamoyl-1H-benzo[d]imidazole-1,2-diyl))bis(3-bromobenzoic acid)]
